Measured values as given in patent US8471005B2 (Cephalon, Inc., priority 2008, dated 2013).

What was measured:
JAK2 = target: T1, JAK2 (Homo sapiens, UniProt O60674); experiment: Recombinant Human JAK2 Kinase Assay (TRF); format: biochemical; details: JAK2 kinase inhibition, 0.2 μM ATP; read-out: JAK2 Potency
T1 construct: host or cells: baculovirus expression system
How it was run: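 Kinase activity of baculovirus-expressed JAK2 is followed on a surface-immobilised biotinylated peptide, with the reaction run for 20 min at room temperature in buffer containing 0.2 μM ATP and manganese. Phosphorylation is read with Eu-N1 PY100 antibody.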

ALK = target: T2, ALK (Homo sapiens, UniProt Q9UM73); experiment: ALK Kinase Assay (ELISA/TRF, PLC-γ substrate); format: biochemical; details: ALK kinase inhibition, 1 μM ATP; read-out: ALK Potency
T2 construct: host or cells: baculovirus expression system
T2 sequence (Q9UM73 19-1620): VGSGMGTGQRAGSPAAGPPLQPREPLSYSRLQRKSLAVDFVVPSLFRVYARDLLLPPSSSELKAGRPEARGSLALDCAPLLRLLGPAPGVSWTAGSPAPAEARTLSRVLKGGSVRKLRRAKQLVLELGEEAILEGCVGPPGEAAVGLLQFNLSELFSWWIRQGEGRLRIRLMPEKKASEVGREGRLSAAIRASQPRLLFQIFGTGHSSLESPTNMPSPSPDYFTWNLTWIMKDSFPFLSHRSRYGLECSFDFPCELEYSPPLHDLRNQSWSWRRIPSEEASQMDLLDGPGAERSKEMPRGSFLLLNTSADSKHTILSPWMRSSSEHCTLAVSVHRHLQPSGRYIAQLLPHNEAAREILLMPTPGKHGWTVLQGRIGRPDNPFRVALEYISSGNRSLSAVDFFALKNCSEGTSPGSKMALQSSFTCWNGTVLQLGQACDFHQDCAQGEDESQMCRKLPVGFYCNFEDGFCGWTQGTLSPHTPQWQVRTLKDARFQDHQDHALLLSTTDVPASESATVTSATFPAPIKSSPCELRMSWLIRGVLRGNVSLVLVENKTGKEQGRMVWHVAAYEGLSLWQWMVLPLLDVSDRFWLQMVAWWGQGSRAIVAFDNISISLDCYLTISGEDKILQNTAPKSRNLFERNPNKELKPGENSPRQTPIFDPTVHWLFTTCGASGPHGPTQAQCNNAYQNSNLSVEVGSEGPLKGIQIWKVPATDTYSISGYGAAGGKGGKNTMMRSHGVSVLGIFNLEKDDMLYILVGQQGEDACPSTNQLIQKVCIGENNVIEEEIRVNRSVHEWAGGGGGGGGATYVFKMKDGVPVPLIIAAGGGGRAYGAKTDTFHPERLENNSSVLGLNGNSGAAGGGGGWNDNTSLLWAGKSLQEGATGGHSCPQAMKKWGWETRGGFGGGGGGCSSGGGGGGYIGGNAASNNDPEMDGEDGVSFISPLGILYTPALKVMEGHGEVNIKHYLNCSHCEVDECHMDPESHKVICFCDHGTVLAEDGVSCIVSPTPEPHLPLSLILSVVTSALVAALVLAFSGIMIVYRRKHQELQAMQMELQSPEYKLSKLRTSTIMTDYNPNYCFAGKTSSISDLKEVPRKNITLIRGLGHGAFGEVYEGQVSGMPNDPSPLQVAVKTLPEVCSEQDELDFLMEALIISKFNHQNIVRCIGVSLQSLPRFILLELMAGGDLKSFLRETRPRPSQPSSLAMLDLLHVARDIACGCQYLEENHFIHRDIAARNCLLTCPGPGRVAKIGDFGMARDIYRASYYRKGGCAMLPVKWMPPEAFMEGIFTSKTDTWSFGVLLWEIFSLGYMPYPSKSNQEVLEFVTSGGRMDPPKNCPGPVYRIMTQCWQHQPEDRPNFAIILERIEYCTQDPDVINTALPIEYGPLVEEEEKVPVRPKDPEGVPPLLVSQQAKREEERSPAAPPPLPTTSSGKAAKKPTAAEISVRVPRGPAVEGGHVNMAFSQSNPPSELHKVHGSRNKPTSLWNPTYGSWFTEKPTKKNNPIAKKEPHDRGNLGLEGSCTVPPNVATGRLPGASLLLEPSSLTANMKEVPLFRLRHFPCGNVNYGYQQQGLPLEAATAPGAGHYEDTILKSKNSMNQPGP
How it was run: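 Wells were coated with 10 μg/mL phospholipase C-γ substrate in TBS, and the reaction was started by adding 30 ng/ml ALK enzyme and run at 37° C for 15 minutes. Phosphorylated product was detected with Eu-N1-labeled PT66 antibody, and IC50 values came from sigmoidal variable-slope fits of percent inhibition against log concentration.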

T1 sequence (O60674 whole entry): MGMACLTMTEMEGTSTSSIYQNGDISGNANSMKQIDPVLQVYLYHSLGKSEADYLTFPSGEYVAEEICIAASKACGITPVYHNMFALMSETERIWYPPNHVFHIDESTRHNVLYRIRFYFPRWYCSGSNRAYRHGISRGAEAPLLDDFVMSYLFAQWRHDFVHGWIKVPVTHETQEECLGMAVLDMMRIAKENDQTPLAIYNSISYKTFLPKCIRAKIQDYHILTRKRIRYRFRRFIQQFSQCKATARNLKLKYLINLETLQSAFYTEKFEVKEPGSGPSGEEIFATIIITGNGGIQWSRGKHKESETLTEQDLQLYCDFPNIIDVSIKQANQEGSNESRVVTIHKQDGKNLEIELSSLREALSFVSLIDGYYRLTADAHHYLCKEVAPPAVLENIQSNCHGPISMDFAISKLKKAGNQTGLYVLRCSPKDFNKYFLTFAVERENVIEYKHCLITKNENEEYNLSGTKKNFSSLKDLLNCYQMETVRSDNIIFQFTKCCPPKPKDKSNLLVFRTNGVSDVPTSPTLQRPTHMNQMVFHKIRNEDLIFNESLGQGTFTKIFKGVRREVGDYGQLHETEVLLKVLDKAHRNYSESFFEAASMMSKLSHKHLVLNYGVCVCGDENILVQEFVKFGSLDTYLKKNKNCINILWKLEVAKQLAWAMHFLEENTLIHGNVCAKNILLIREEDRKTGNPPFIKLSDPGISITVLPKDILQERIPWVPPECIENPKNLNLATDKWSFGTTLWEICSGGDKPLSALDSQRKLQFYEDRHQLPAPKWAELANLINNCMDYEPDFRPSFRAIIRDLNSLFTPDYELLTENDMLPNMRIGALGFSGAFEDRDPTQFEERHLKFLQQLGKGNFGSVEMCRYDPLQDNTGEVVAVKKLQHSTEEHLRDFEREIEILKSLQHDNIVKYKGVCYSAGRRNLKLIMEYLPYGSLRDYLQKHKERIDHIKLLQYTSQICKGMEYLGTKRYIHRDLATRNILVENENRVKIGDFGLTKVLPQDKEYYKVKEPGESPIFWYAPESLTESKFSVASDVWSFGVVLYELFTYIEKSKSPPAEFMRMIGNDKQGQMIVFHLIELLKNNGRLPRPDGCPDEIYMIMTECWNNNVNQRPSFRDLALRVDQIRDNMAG

SMILES	IC50 (JAK2) [nM]	IC50 (ALK) [nM]
COc1cc(C2CCN(C[C@@H](C)O)CC2)ccc1Nc1ncc2ccc(-c3cc(Cl)ccc3OC)n2n1 [Example 794, (R)-1-(4-{4-[7-(5-Chloro-2-methoxy-phenyl)-pyrrolo[2,1-f][1,2,4]triazin-2-ylamino]-3-methoxy-phenyl}-piperidin-1-yl)-propan-2-ol]	100 to 1000	< 100
COc1cc(N2CCC(N(C)CCO)CC2)ccc1Nc1ncc2ccc(-c3ccccc3OC)n2n1 [Example 796, 2-[(1-{3-Methoxy-4-[7-(2-methoxy-phenyl)-pyrrolo[2,1-f][1,2,4]triazin-2-ylamino]-phenyl}-piperidin-4-yl)-methyl-amino]-ethanol]	< 100	< 100
COc1cc(N2CCC(NCCO)CC2)ccc1Nc1ncc2ccc(-c3ccccc3OC)n2n1 [Example 797, 2-(1-{3-Methoxy-4-[7-(2-methoxy-phenyl)-pyrrolo[2,1-f][1,2,4]triazin-2-ylamino]-phenyl}-piperidin-4-ylamino)-ethanol]	< 100	< 100
COc1cc(C2CCN(C[C@H](O)C(F)(F)F)CC2)ccc1Nc1ncc2ccc(-c3ccccc3OC)n2n1 [Example 799, (S)-1,1,1-Trifluoro-3-(4-{3-methoxy-4-[7-(2-methoxy-phenyl)-pyrrolo[2,1-f][1,2,4]triazin-2-ylamino]-phenyl}-piperidin-1-yl)-propan-2-ol]	100 to 1000	< 100
COc1cc(N2CCCN(C3CCN(CCO)CC3)CC2)ccc1Nc1ncc2ccc(-c3ccccc3OC)n2n1 [Example 800, 2-[4-(4-{3-Methoxy-4-[7-(2-methoxy-phenyl)-pyrrolo[2,1-f][1,2,4]triazin-2-ylamino]-phenyl}-[1,4]diazepan-1-yl)-piperidin-1-yl]-ethanol]	100 to 1000	< 100
COc1cc(N2CCC(N3CCCN(CCO)CC3)CC2)ccc1Nc1ncc2ccc(-c3ccccc3OC)n2n1 [Example 801, 2-[4-(1-{3-Methoxy-4-[7-(2-methoxy-phenyl)-pyrrolo[2,1-f][1,2,4]triazin-2-ylamino]-phenyl}-piperidin-4-yl)-[1,4]diazepan-1-yl]-ethanol]	< 100	< 100
COc1cc(N2CCC(N3CCCN(CCO)CC3)CC2)ccc1Nc1ncc2ccc(-c3ccccc3N(C)S(C)(=O)=O)n2n1 [Example 803, N-{2-[2-(4-{4-[4-(2-Hydroxy-ethyl)-[1,4]diazepan-1-yl]-piperidin-1-yl}-2-methoxy-phenylamino)-pyrrolo[2,1-f][1,2,4]triazin-7-yl]-phenyl}-N-methyl-methanesulfonamide]	100 to 1000	< 100
COc1cc(C2CCN(C[C@H](O)C(F)(F)F)CC2)ccc1Nc1ncc2ccc(-c3ccccc3N(C)S(C)(=O)=O)n2n1 [Example 804, N-[2-(2-{2-Methoxy-4-[1-((S)-3,3,3-trifluoro-2-hydroxy-propyl)-piperidin-4-yl]-phenylamino}-pyrrolo[2,1-f][1,2,4]triazin-7-yl)-phenyl]-N-methyl-methanesulfonamide]	100 to 1000	< 100
COc1cc(C2CCCN(C)C2)ccc1Nc1ncc2ccc(-c3ccccc3OC)n2n1 (stereo not shown) [Example 805, [2-Methoxy-4-(1-methyl-piperidin-3-yl)-phenyl]-[7-(2-methoxy-phenyl)-pyrrolo[2,1-f][1,2,4]triazin-2-yl]-amine]	100 to 1000	< 100
COc1cc(C2CCCN(C)C2)ccc1Nc1ncc2ccc(-c3ccccc3N(C)S(C)(=O)=O)n2n1 (stereo not shown) [Example 806, N-(2-{2-[2-Methoxy-4-(1-methyl-piperidin-3-yl)-phenylamino]-pyrrolo[2,1-f][1,2,4]triazin-7-yl}-phenyl)-N-methyl-methanesulfonamide]	100 to 1000	< 100
COc1cc(-c2cccnc2)ccc1Nc1ncc2ccc(-c3ccccc3OC)n2n1 [Example 807, [7-(2-Methoxy-phenyl)-pyrrolo[2,1-f][1,2,4]triazin-2-yl]-(2-methoxy-4-pyridin-3-yl-phenyl)-amine]	> 10000	1000 to 10000
COc1cc(-c2cccnc2)ccc1Nc1ncc2ccc(-c3ccccc3N(C)S(C)(=O)=O)n2n1 [Example 808, N-{2-[2-(2-Methoxy-4-pyridin-3-yl-phenylamino)-pyrrolo[2,1-f][1,2,4]triazin-7-yl]-phenyl}-N-methyl-methanesulfonamide]	> 10000	100 to 1000
COc1cc2c(cc1Nc1ncc3ccc(-c4ccccc4N(C)S(C)(=O)=O)n3n1)CN(C)C2 [Example 809, N-{2-[2-(6-Methoxy-2-methyl-2,3-dihydro-1H-isoindol-5-ylamino)-pyrrolo[2,1-f][1,2,4]triazin-7-yl]-phenyl}-N-methyl-methanesulfonamide]	100 to 1000	< 100
COc1cc(C2CCN(CC(=O)N(C)C)CC2)ccc1Nc1ncc2ccc(-c3ccccc3N(C)S(C)(=O)=O)n2n1 [Example 810, 2-[4-(4-{7-[2-(Methanesulfonyl-methyl-amino)-phenyl]-pyrrolo[2,1-f][1,2,4]triazin-2-ylamino}-3-methoxy-phenyl)-piperidin-1-yl]-N,N-dimethyl-acetamide]	100 to 1000	< 100
COc1cc(C2CCN(CC(=O)N(C)C)CC2)ccc1Nc1ncc2ccc(-c3ccccc3OC)n2n1 [Example 811, 2-(4-{3-Methoxy-4-[7-(2-methoxy-phenyl)-pyrrolo[2,1-f][1,2,4]triazin-2-ylamino]-phenyl}-piperidin-1-yl)-N,N-dimethyl-acetamide]	100 to 1000	< 100
COc1cc(C2CCN(CC(N)=O)CC2)ccc1Nc1ncc2ccc(-c3ccccc3N(C)S(C)(=O)=O)n2n1 [Example 812, 2-[4-(4-{7-[2-(Methanesulfonyl-methyl-amino)-phenyl]-pyrrolo[2,1-f][1,2,4]triazin-2-ylamino}-3-methoxy-phenyl)-piperidin-1-yl]-acetamide]	100 to 1000	< 100
COc1cc(C2CCN(C(=O)CN(C)C)CC2)ccc1Nc1ncc2ccc(-c3ccccc3N(C)S(C)(=O)=O)n2n1 [Example 813, N-[2-(2-{4-[1-(2-Dimethylamino-acetyl)-piperidin-4-yl]-2-methoxy-phenylamino}-pyrrolo[2,1-f][1,2,4]triazin-7-yl)-phenyl]-N-methyl-methanesulfonamide]	1000 to 10000	< 100
COc1cc(C2CCN(CC(N)=O)CC2)ccc1Nc1ncc2ccc(-c3ccccc3OC)n2n1 [Example 814, 2-(4-{3-Methoxy-4-[7-(2-methoxy-phenyl)-pyrrolo[2,1-f][1,2,4]triazin-2-ylamino]-phenyl}-piperidin-1-yl)-acetamide]	100 to 1000	< 100
COc1cc(C2CCN(C(=O)CN(C)C)CC2)ccc1Nc1ncc2ccc(-c3ccccc3OC)n2n1 [Example 815, 2-Dimethylamino-1-(4-{3-methoxy-4-[7-(2-methoxy-phenyl)-pyrrolo[2,1-f][1,2,4]triazin-2-ylamino]-phenyl}-piperidin-1-yl)-ethanone]	100 to 1000	< 100
COc1cc2c(cc1Nc1ncc3ccc(-c4ccccc4OC)n3n1)CN(C)C2 [Example 816, (6-Methoxy-2-methyl-2,3-dihydro-1H-isoindol-5-yl)-[7-(2-methoxy-phenyl)-pyrrolo[2,1-f][1,2,4]triazin-2-yl]-amine]	< 100	< 100
COc1cc(C2CCN(C(=O)OC(C)(C)C)CC2)ccc1Nc1ncc2ccc(-c3ccccc3OC)n2n1 [Example 817, 4-{3-Methoxy-4-[7-(2-methoxy-phenyl)-pyrrolo[2,1-f][1,2,4]triazin-2-ylamino]-phenyl}-piperidine-1-carboxylic acid tert-butyl ester]	> 10000	> 10000
COc1cc(C2CCN(C(=O)OC(C)(C)C)CC2)ccc1Nc1ncc2ccc(-c3ccccc3N(C)S(C)(=O)=O)n2n1 [Example 818, 4-(4-{7-[2-(Methanesulfonyl-methyl-amino)-phenyl]-pyrrolo[2,1-f][1,2,4]triazin-2-ylamino}-3-methoxy-phenyl)-piperidine-1-carboxylic acid tert-butyl ester]	> 10000	100 to 1000
COc1cc(C2CCNCC2)ccc1Nc1ncc2ccc(-c3ccccc3N(C)S(C)(=O)=O)n2n1 [Example 819, N-{2-[2-(2-Methoxy-4-piperidin-4-yl-phenylamino)-pyrrolo[2,1-f][1,2,4]triazin-7-yl]-phenyl}-N-methyl-methanesulfonamide]	1000 to 10000	< 100
COc1cc(C2CCNCC2)ccc1Nc1ncc2ccc(-c3ccccc3OC)n2n1 [Example 820, [7-(2-Methoxy-phenyl)-pyrrolo[2,1-f][1,2,4]triazin-2-yl]-(2-methoxy-4-piperidin-4-yl-phenyl)-amine]	100 to 1000	< 100
COc1cc(C2CCN(C(=O)C(C)(C)N)CC2)ccc1Nc1ncc2ccc(-c3ccccc3OC)n2n1 [Example 821, 2-Amino-1-(4-{3-methoxy-4-[7-(2-methoxy-phenyl)-pyrrolo[2,1-f][1,2,4]triazin-2-ylamino]-phenyl}-piperidin-1-yl)-2-methyl-propan-1-one]	100 to 1000	< 100
COc1cc(C2CCN(C(=O)C(C)(C)N)CC2)ccc1Nc1ncc2ccc(-c3ccccc3N(C)S(C)(=O)=O)n2n1 [Example 822, N-[2-(2-{4-[1-(2-Amino-2-methyl-propionyl)-piperidin-4-yl]-2-methoxy-phenylamino}-pyrrolo[2,1-f][1,2,4]triazin-7-yl)-phenyl]-N-methyl-methanesulfonamide]	100 to 1000	< 100
